Results published in publication PMC9945734 (BMC Medicine, 2023).
“And” between values parts separate entries of the source, which are not always exact repeats. Equal entries are not always repeated.

Tested on: PC-3-KQ and PC-3-KR cells
Assay: RNA-sequencing and differential gene expression
Assay type: cell-based, human
Design: CEP19 tpm_KQ_NTZ / CCNA1 tpm_KQ_NTZ / BTN3A3 tpm_KQ_NTZ / CAPSL tpm_KQ_NTZ / CELF3 tpm_KQ_NTZ / C5orf63 tpm_KQ_NTZ / tpm MSMP / tpm MYH7B / tpm CACNG8 / CNTNAP3B tpm_KQ_NTZ / IL21R tpm_KQ_NTZ / CYP8B1 tpm_KQ_NTZ / C2orf78 tpm_KQ_NTZ / CALB1 tpm_KQ_NTZ / COL4A3 tpm_KQ_NTZ / CFB tpm_KQ_NTZ / PFKFB1 tpm_KQ_NTZ / BTBD11 tpm_KQ_NTZ: scale not given here
Conditions: PC-3-KQ cells with NTZ, RNA-Seq, listed as NTZ

CC(=O)Oc1ccccc1C(=O)Nc1ncc([N+](=O)[O-])s1 [Nitazoxanide]
NT5E tpm_KQ_NTZ (replicates 1-3): -0.3117 and -0.2802 and -0.3345
NTF4 tpm_KQ_NTZ (replicates 1-3): -0.8704 and -0.4013 and -0.4312
PADI3 tpm_KQ_NTZ (replicates 1-3): -0.6957 and -0.9817 and -0.9686
PCDH18 tpm_KQ_NTZ (replicates 1-3): -1.061 and -0.1951 and -0.6677
PDGFA tpm_KQ_NTZ (replicates 1-3): 0.404 and 0.3967 and 0.4405
PDZK1 tpm_KQ_NTZ (replicates 1-3): -0.2414 and 0.3327 and -0.5574
PEG10 tpm_KQ_NTZ (replicates 1-3): -0.4908 and -0.6617 and -1.075
PFKFB1 tpm_KQ_NTZ (replicates 1-3): 0.1063 and -0.5815 and -0.9802
PGAM4 tpm_KQ_NTZ (replicates 1-3): -1.18 and 0.2721 and 0.1017
PHACTR3 tpm_KQ_NTZ (replicates 1-3): -0.9821 and -1.045 and -0.9733
PHOSPHO2 tpm_KQ_NTZ (replicates 1-3): -0.6941 and -0.4899 and -0.4437
PIANP tpm_KQ_NTZ (replicates 1-3): -0.9238 and -0.4554 and -0.5206
PITPNM3 tpm_KQ_NTZ (replicates 1-3): 0.8488 and 0.3478 and 1.199
PKIA tpm_KQ_NTZ (replicates 1-3): -0.2506 and -0.236 and -0.2863
PRKAR1B tpm_KQ_NTZ (replicates 1-3): 0.4324 and 0.4514 and 0.7549
PRKDC tpm_KQ_NTZ (replicates 1-3): 0.0232 and -0.08402 and -0.5624
PROS1 tpm_KQ_NTZ (replicates 1-3): 0.5403 and 0.6849 and 0.6327
PRR16 tpm_KQ_NTZ (replicates 1-3): -0.9713 and 0.1931 and -0.1646
PRR29 tpm_KQ_NTZ (replicates 1-3): -0.06306 and -0.3085 and -0.2669
PTPRR tpm_KQ_NTZ (replicates 1-3): 0.6595 and 1.295 and 0.9528
RBL1 tpm_KQ_NTZ (replicates 1-3): -0.1965 and -0.4796 and -0.579
RLN1 tpm_KQ_NTZ (replicates 1-3): -0.3286 and -1.073 and -1.143
RMDN2 tpm_KQ_NTZ (replicates 1-3): 0.2344 and 0.5874 and -0.2937
RND1 tpm_KQ_NTZ (replicates 1-3): 0.2005 and 0.3255 and 0.6944
S100A6 tpm_KQ_NTZ (replicates 1-3): -0.1375 and -0.00541 and 0.1164
SCG2 tpm_KQ_NTZ (replicates 1-3): 0.5158 and -0.04635 and -1.114
SDCBP2 tpm_KQ_NTZ (replicates 1-3): 0.1173 and 0.1996 and 0.2731
SERINC5 tpm_KQ_NTZ (replicates 1-3): 0.7977 and 0.7386 and 0.3271
SERPINA3 tpm_KQ_NTZ (replicates 1-3): 0.1383 and 0.1648 and 0.1316
SERPINB4 tpm_KQ_NTZ (replicates 1-3): -0.3324 and -0.2205 and -0.9332
SERPIND1 tpm_KQ_NTZ (replicates 1-3): -1.101 and -0.7105 and -1.316
SGK1 tpm_KQ_NTZ (replicates 1-3): -0.7129 and -0.3809 and -0.4182
SHISA3 tpm_KQ_NTZ (replicates 1-3): -0.1615 and -0.01424 and -0.03964
SLC1A1 tpm_KQ_NTZ (replicates 1-3): 0.007137 and 0.6447 and 0.4297
SLC26A9 tpm_KQ_NTZ (replicates 1-3): -0.2744 and 0.2725 and -0.927
SLC41A2 tpm_KQ_NTZ (replicates 1-3): 0.4534 and 0.4303 and 0.4488
SLC44A4 tpm_KQ_NTZ (replicates 1-3): 0.5521 and 0.8689 and 0.6934
SLC45A2 tpm_KQ_NTZ (replicates 1-3): 0.257 and 0.07385 and 0.3908
SLITRK5 tpm_KQ_NTZ (replicates 1-3): 0.1465 and 0.3195 and -0.4377
SMCO4 tpm_KQ_NTZ (replicates 1-3): 0.1432 and -0.08242 and 0.08549
SPOCK2 tpm_KQ_NTZ (replicates 1-3): 0.7174 and 0.4246 and 1.38
STK32A tpm_KQ_NTZ (replicates 1-3): -0.2617 and 0.04669 and 0.4294
SYN3 tpm_KQ_NTZ (replicates 1-3): 0.4729 and 0.3702 and 0.1862
TENM4 tpm_KQ_NTZ (replicates 1-3): 0.2992 and -0.3092 and -0.102
TIMM8A tpm_KQ_NTZ (replicates 1-3): -0.8837 and -0.8279 and -0.9653
TJP3 tpm_KQ_NTZ (replicates 1-3): 0.01147 and 0.1369 and 0.1215
TMEM140 tpm_KQ_NTZ (replicates 1-3): 0.2484 and 0.4158 and -0.0465
TMEM269 tpm_KQ_NTZ (replicates 1-3): 0.406 and 0.06998 and -0.4941
TMOD1 tpm_KQ_NTZ (replicates 1-3): 1.342 and 1.235 and 0.499
TMPRSS2 tpm_KQ_NTZ (replicates 1-3): 0.007165 (2×) and 0.0842
TNFAIP8L2-SCNM1 tpm_KQ_NTZ (replicates 1-3): -0.5467 and -1.562 and 0.4492
TNFRSF11B tpm_KQ_NTZ (replicates 1-3): -0.9649 and -1.078 and -1.224
TSPAN18 tpm_KQ_NTZ (replicates 1-3): 0.09114 and -0.09342 and 0.05473
TTC9 tpm_KQ_NTZ (replicates 1-3): 0.2094 and 0.2356 and 0.6409
TTC30A tpm_KQ_NTZ (replicates 1-3): -0.04558 and -0.08793 and -0.6072
TTC30B tpm_KQ_NTZ (replicates 1-3): -0.2207 and -0.5797 and -0.3178
UST tpm_KQ_NTZ (replicates 1-3): 0.2599 and 0.1194 and -0.01732
WHRN tpm_KQ_NTZ (replicates 1-3): 0.9053 and 0.8473 and 0.7758
WNT4 tpm_KQ_NTZ (replicates 1-3): 0.9814 and 1.222 and 1.387
WNT9A tpm_KQ_NTZ (replicates 1-3): 0.12 and -0.05504 and -0.01608
ZFPM2 tpm_KQ_NTZ (replicates 1-3): -0.1773 and -0.1147 and -0.2406
ZNF596 tpm_KQ_NTZ (replicates 1-3): -1.141 and -0.2632 and -0.6635
tpm ABAT (replicates NTZ1-3): 1.268 and 0.9682 and 0.237
tpm ADIRF (replicates NTZ1-3): -0.4477 and -0.5226 and -0.3352
tpm ANKRD63 (replicates NTZ1-3): 0.1535 and -0.6652 and 0.3857
tpm ANXA8 (replicates NTZ1-3): 0.9428 and 0.3454 and -1.083
tpm ANXA8L1 (replicates NTZ1-3): -0.298 and -0.4234 and -0.7464
tpm ARG2 (replicates NTZ1-3): 1.137 and 1.333 and 1.316
tpm ATP2A3 (replicates NTZ1-3): 0.8036 (2×) and -0.2131
tpm C11orf65 (replicates NTZ1-3): -1.057 and -0.2742 and -0.729
tpm CACNG8 (replicates NTZ1-3): -0.5252 and -0.3048 and -0.9129
tpm CAPN12 (replicates NTZ1-3): 0.129 and 0.1138 (2×)
tpm CD14 (replicates NTZ1-3): -1.105 and -0.7008
tpm CGB5 (replicates NTZ1-3): 0.9167 and 0.2487 and 0.1354
tpm CHPF2 (replicates NTZ1-3): 1.06 and 0.6508 and 0.6663
tpm COL4A4 (replicates NTZ1-3): 0.03123 and -0.5371 and -0.2214
tpm COL4A6 (replicates NTZ1-3): -0.1711 and -0.6593 and -0.6324
tpm CXCL5 (replicates NTZ1-3): -0.4877 and -0.4195 and -0.4771
tpm CYP1B1 (replicates NTZ1-3): 0.6593 and 0.4159 and 0.0748
tpm CYP2E1 (replicates NTZ1-3): 0.3931 and 0.8042 and 0.2474
